Consider 4 molecules from US20260200947A1, “FUSED CYCLIC COMPOUNDS AND USE THEREOF” (Jacobio Pharmaceuticals Co., Ltd., priority 2022, published 2026).

T1 sequence (P01116 1-169 isoform P01116-2 G12V): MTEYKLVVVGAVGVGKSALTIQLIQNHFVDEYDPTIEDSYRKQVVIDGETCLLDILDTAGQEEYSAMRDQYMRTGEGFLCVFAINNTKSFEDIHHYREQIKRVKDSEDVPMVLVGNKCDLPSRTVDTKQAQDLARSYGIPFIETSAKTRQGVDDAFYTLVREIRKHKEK

The subject of one test is AGS cells (K-Ras G12D).
Assay: not given
Conditions: not given
For `C#Cc1c(F)ccc2cc(N)cc(-c3nc4c5c(nc(OC[C@@]67CCCN6C[C@H](F)C7)nc5c3F)N3CCCOCC3N4)c12` (stereo partly drawn) [Compound 113], the IC50 turned out to be 35.1 nM.

Molecule `CSc1cccc2cc(O)cc(-c3nc4c5c(nc(OC[C@@]67CCCN6C[C@H](F)C7)nc5c3F)N3CCCOC[C@H]3N4C)c12` [Compound 20] had a concentration for half-maximal inhibition (IC50) of 22.1 nM.

`[2H]C([2H])([2H])N1c2nc(-c3cc(N)cc4ccc(F)c(C#C)c34)c(F)c3nc(OC[C@@]45CCCN4C[C@H](F)C5)nc(c23)N2CCCOC[C@H]21` [Compound 48]: the half-maximal inhibitory concentration (IC50) amounted to 3.44 nM.

In a further test the test system is SW620 cells (K-Ras G12V).
Assay: not given
Conditions: not given
With `C#Cc1c(F)ccc2cc(N)cc(-c3nc4c5c(nc(OC[C@@]67CCCN6C[C@H](F)C7)nc5c3F)N3CCC=C[C@H](F)[C@H]3N4C)c12` [Compound 108A], the IC50 was determined as 15.8 nM.

The molecule `C#Cc1c(F)ccc2cc(N)cc(-c3nc4c5c(nc(OC[C@@]67CCCN6C[C@H](F)C7)nc5c3F)N3CCCOCC3N4)c12` (stereo partly drawn) [Compound 113] registered a half-inhibitory concentration (IC50) of 45.4 nM.

`CSc1cccc2cc(O)cc(-c3nc4c5c(nc(OC[C@@]67CCCN6C[C@H](F)C7)nc5c3F)N3CCCOC[C@H]3N4C)c12` [Compound 20]: the half-inhibitory concentration (IC50) amounted to 24.4 nM.

For `[2H]C([2H])([2H])N1c2nc(-c3cc(N)cc4ccc(F)c(C#C)c34)c(F)c3nc(OC[C@@]45CCCN4C[C@H](F)C5)nc(c23)N2CCCOC[C@H]21` [Compound 48], the half-inhibitory concentration (IC50) is 2.55 nM.

In a further test the test system is SW620 cells (K-Ras G12V). As to the kind of experiment: Phospho-ERK1/2(THR202/TYR204) HTRF assay, SW620. Type of test: cell-based. The following applies: Homo sapiens, SW-620, 2 hours incubation, read-out: pERK, IC50, SW620. (In general: TR-FRET usually uses a lanthanide donor and a delayed reading to cut background.)
`C#Cc1c(F)ccc2cc(N)cc(-c3nc4c5c(nc(OC[C@@]67CCCN6C[C@H](F)C7)nc5c3F)N3CCCOCC3N4)c12` (stereo partly drawn) [Compound 113]: the IC50 amounted to 21.4 nM.

Regarding `[2H]C([2H])([2H])N1c2nc(-c3cc(N)cc4ccc(F)c(C#C)c34)c(F)c3nc(OC[C@@]45CCCN4C[C@H](F)C5)nc(c23)N2CCCOC[C@H]21` [Compound 48], the IC50 came to 3.68 nM.

The next test concerns the target T1, GDP-KRAS G12V (Homo sapiens, UniProt P01116, G12V). The test can be described thus: SOS1 catalyzed nucleotide exchange assay, GDP-KRAS G12V. To be noted: read-out: Biochemical assays, IC50, KRAS G12V GDP, GDP form K-Ras G12V, TR-FRET.
Consider `C#Cc1c(F)ccc2cc(N)cc(-c3nc4c5c(nc(OC[C@@]67CCCN6C[C@H](F)C7)nc5c3F)N3CCC=C[C@H](F)[C@H]3N4C)c12` [Compound 108A], for which the IC50 was 2.95 nM.

For another test, the system named is AsPC-1 cells (K-Ras G12D).
Assay: not given
Conditions: not given
In turn, `C#Cc1c(F)ccc2cc(N)cc(-c3nc4c5c(nc(OC[C@@]67CCCN6C[C@H](F)C7)nc5c3F)N3CCC=C[C@H](F)[C@H]3N4C)c12` [Compound 108A] showed a half-maximal inhibitory concentration (IC50) of 62.7 nM.

`C#Cc1c(F)ccc2cc(N)cc(-c3nc4c5c(nc(OC[C@@]67CCCN6C[C@H](F)C7)nc5c3F)N3CCCOCC3N4)c12` (stereo partly drawn) [Compound 113] returned a 50% inhibitory concentration (IC50) of 587 nM.

`CSc1cccc2cc(O)cc(-c3nc4c5c(nc(OC[C@@]67CCCN6C[C@H](F)C7)nc5c3F)N3CCCOC[C@H]3N4C)c12` [Compound 20] yielded an IC50 of 110 nM.

With `[2H]C([2H])([2H])N1c2nc(-c3cc(N)cc4ccc(F)c(C#C)c34)c(F)c3nc(OC[C@@]45CCCN4C[C@H](F)C5)nc(c23)N2CCCOC[C@H]21` [Compound 48], the IC50 is 26.6 nM.

The target of a further test is T2, GDP-KRAS G12D (Homo sapiens, UniProt P01116, G12D). The test can be described thus: SOS1 catalyzed nucleotide exchange assay, GDP-KRAS G12D. To be noted: read-out: Biochemical assays, IC50, KRAS G12D GDP, GDP form K-Ras G12D, TR-FRET.
T2 sequence (P01116 1-169 isoform P01116-2 G12D): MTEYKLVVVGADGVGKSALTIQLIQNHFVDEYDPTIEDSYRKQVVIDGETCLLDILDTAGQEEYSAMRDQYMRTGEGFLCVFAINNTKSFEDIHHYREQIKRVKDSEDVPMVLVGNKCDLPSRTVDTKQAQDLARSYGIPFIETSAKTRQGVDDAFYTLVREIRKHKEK
As for `C#Cc1c(F)ccc2cc(N)cc(-c3nc4c5c(nc(OC[C@@]67CCCN6C[C@H](F)C7)nc5c3F)N3CCC=C[C@H](F)[C@H]3N4C)c12` [Compound 108A], the IC50 worked out at 3.32 nM.

Another test deals with T1, GDP-KRAS G12V. The test can be described thus: biochemical.
Conditions: not given
`C#Cc1c(F)ccc2cc(N)cc(-c3nc4c5c(nc(OC[C@@]67CCCN6C[C@H](F)C7)nc5c3F)N3CCCOCC3N4)c12` (stereo partly drawn) [Compound 113] registered an IC50 of 3.81 nM.

For the molecule `[2H]C([2H])([2H])N1c2nc(-c3cc(N)cc4ccc(F)c(C#C)c34)c(F)c3nc(OC[C@@]45CCCN4C[C@H](F)C5)nc(c23)N2CCCOC[C@H]21` [Compound 48], 0.595 nM corresponded to half-maximal inhibition (IC50).

A further test deals with AGS cells (K-Ras G12D).
Assay: not given
Conditions: not given
The source holds these as a separate data set.
The molecule `C#Cc1c(F)ccc2cc(N)cc(-c3nc4c5c(nc(OC[C@@]67CCCN6C[C@H](F)C7)nc5c3F)N3CCCOCC3N4)c12` (stereo partly drawn) [Compound 113] had a concentration for half-maximal inhibition (IC50) of 33.6 nM.

Take `[2H]C([2H])([2H])N1c2nc(-c3cc(N)cc4ccc(F)c(C#C)c34)c(F)c3nc(OC[C@@]45CCCN4C[C@H](F)C5)nc(c23)N2CCCOC[C@H]21` [Compound 48]: inhibition was half-maximal at 3.53 nM (IC50).

A further test has as its target T2, GDP-KRAS G12D. The test can be described thus: biochemical.
Conditions: not given
Take `C#Cc1c(F)ccc2cc(N)cc(-c3nc4c5c(nc(OC[C@@]67CCCN6C[C@H](F)C7)nc5c3F)N3CCCOCC3N4)c12` (stereo partly drawn) [Compound 113]: it took 4.62 nM to reach half-maximal inhibition (IC50).

For `[2H]C([2H])([2H])N1c2nc(-c3cc(N)cc4ccc(F)c(C#C)c34)c(F)c3nc(OC[C@@]45CCCN4C[C@H](F)C5)nc(c23)N2CCCOC[C@H]21` [Compound 48], half-maximal inhibition (IC50) required 0.759 nM.

For another test, the target named is T3, GppNp-KRAS G12D (Homo sapiens, UniProt P01116, G12D). As to the kind of experiment: biochemical.
T3 sequence (P01116 1-169 isoform P01116-2 G12D): as above
Conditions: not given
`C#Cc1c(F)ccc2cc(N)cc(-c3nc4c5c(nc(OC[C@@]67CCCN6C[C@H](F)C7)nc5c3F)N3CCCOCC3N4)c12` (stereo partly drawn) [Compound 113] displayed a half-maximal inhibitory concentration (IC50) of 623 nM.

Consider `[2H]C([2H])([2H])N1c2nc(-c3cc(N)cc4ccc(F)c(C#C)c34)c(F)c3nc(OC[C@@]45CCCN4C[C@H](F)C5)nc(c23)N2CCCOC[C@H]21` [Compound 48], for which the IC50 worked out at 35.8 nM.

A further test deals with T4, GppNp-KRAS G12V (Homo sapiens, UniProt P01116, G12V). As to the kind of experiment: GTP-K-Ras and cRAF interaction assay, GppNp-KRAS G12V. The following applies: read-out: Biochemical assays, IC50, KRAS G12V GppNp; GppNp-loaded K-Ras G12V, cRAF RBD interaction, HTRF.
T4 sequence (P01116 1-169 isoform P01116-2 G12V): as the sequence (P01116 1-169 isoform P01116-2 G12V) above
On to `C#Cc1c(F)ccc2cc(N)cc(-c3nc4c5c(nc(OC[C@@]67CCCN6C[C@H](F)C7)nc5c3F)N3CCC=C[C@H](F)[C@H]3N4C)c12` [Compound 108A], for which the concentration for half-maximal inhibition (IC50) was determined as 214 nM.

In a further test the target is T3, GppNp-KRAS G12D. As to the kind of experiment: GTP-K-Ras and cRAF interaction assay, GppNp-KRAS G12D. To be noted: read-out: Biochemical assays, IC50, KRAS G12D GppNp; GppNp-loaded K-Ras G12D, cRAF RBD interaction, HTRF.
`C#Cc1c(F)ccc2cc(N)cc(-c3nc4c5c(nc(OC[C@@]67CCCN6C[C@H](F)C7)nc5c3F)N3CCC=C[C@H](F)[C@H]3N4C)c12` [Compound 108A]: the IC50 is 106 nM.

The next test deals with T4, GppNp-KRAS G12V. As to the kind of experiment: biochemical.
Conditions: not given
Consider `C#Cc1c(F)ccc2cc(N)cc(-c3nc4c5c(nc(OC[C@@]67CCCN6C[C@H](F)C7)nc5c3F)N3CCCOCC3N4)c12` (stereo partly drawn) [Compound 113], for which half-maximal inhibition (IC50) required 513 nM.

Molecule `[2H]C([2H])([2H])N1c2nc(-c3cc(N)cc4ccc(F)c(C#C)c34)c(F)c3nc(OC[C@@]45CCCN4C[C@H](F)C5)nc(c23)N2CCCOC[C@H]21` [Compound 48] returned an IC50 of 55.4 nM.

The subject of a further test is Capan-2 cells (K-Ras G12V).
Assay: not given
Conditions: not given
For `C#Cc1c(F)ccc2cc(N)cc(-c3nc4c5c(nc(OC[C@@]67CCCN6C[C@H](F)C7)nc5c3F)N3CCC=C[C@H](F)[C@H]3N4C)c12` [Compound 108A], the concentration for half-maximal inhibition (IC50) came out at 8.81 nM.

The molecule `CSc1cccc2cc(O)cc(-c3nc4c5c(nc(OC[C@@]67CCCN6C[C@H](F)C7)nc5c3F)N3CCCOC[C@H]3N4C)c12` [Compound 20] had an IC50 of 10.3 nM.

For `[2H]C([2H])([2H])N1c2nc(-c3cc(N)cc4ccc(F)c(C#C)c34)c(F)c3nc(OC[C@@]45CCCN4C[C@H](F)C5)nc(c23)N2CCCOC[C@H]21` [Compound 48], the half-maximal inhibitory concentration (IC50) is 1.65 nM.

Broadly, the IC50 is the concentration that gives 50% inhibition.
